From patent US6914045B2, “Glycopeptide antibiotics” (Wyeth Holdings Corporation, priority 2001, dated 2005)
In brackets after ≈: the same amount, converted by molar mass. Read-outs that look alike come from different tables or passages of the source.

How the values were obtained:
[1] = system: Staphylococcus aureus-SMITH (GC 4543); experiment: acute lethal infection in mice; type: in vivo; conditions: Staphylococcus, read-out: median effective dose (ED50), Staphylococcus aureus-SMITH (GC 4543)
Summary of the method: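 Female CD-1 mice (20+/−2 gm) were infected intraperitoneally with enough bacteria, suspended in trypticase soy broth or hog gastric mucin, to kill untreated controls within 24-48 hr. Compound in saline or 5% dextrose was given intravenously 30 min post-infection, five mice per dose. ED50 came from pooled 7 day survival of 3 tests.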

[2] = anatomic pathology (histopathology of heart and kidney) in mice; type: in vivo; conditions: CD-1 mice, 20 mg/kg intravenously daily for 9 days, necropsy day 10, microscopic histopathology
Description: Samples of tissues from necropsied mice were formalin-fixed, paraffin-embedded, sectioned, stained with hematoxylin and eosin, and examined microscopically. Histopathologic findings were recorded. These findings were subjectively graded on a scale corresponding to slight, mild, moderate, marked and severe as compared to untreated controls.

[3] = system: Gram-positive bacteria comprised of Staphylococcus sp., Streptococcus sp. and Enterococcus sp.; experiment: in vitro antibacterial evaluation, MIC by broth dilution (strain not given); type: cell-based
Description: Methods for in vitro Antibacterial Evaluation (Table 1)
The minimum inhibitory concentration (MIC), the lowest concentration of the antibiotic which inhibits growth of the test organism, is determined by the broth dilution method using Muller-Hinton II […] (Baltimore Biological Laboratories) following the recommendations of the National Committee for Clinical Laboratory Standards [Methods for dilution antimicrobial susceptibility tests for bacteria that grow aerobically, approved standard M7-A2, National Committee for Clinical Laboratory Standards, Villanova, Pa.].
An inoculum level of 5×10^5 CFU/mL, and a range of antibiotic concentrations (64-0.06 μg/mL) is used. […] The test organisms include a spectrum of Gram-positive bacteria comprised of Staphylococcus sp., Streptococcus sp. and Enterococcus sp. These organisms include recent clinical isolates that are resistant to methicillin, penicillin and/or vancomycin.

[4] = system: Streptococcus sp.; experiment: in vitro antibacterial evaluation, MIC by broth dilution; type: cell-based; conditions: broth dilution, 18 hours at 35° C.
Summary of the method: (§1)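 Inoculum 5×10^5 CFU/mL; concentrations 64 to 0.06 μg/mL; MIC defined as lowest inhibitory level. Conducted by broth dilution under NCCLS guidelines.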

[5] = system: Staphylococcus sp.; experiment: as above; type: cell-based; conditions: broth dilution, 18 hours at 35° C.
Summary of the method: as §1

[6] = system: Enterococcus sp.; experiment: as above; type: cell-based; conditions: broth dilution, 18 hours at 35° C.
Summary of the method: as §1

[7] = system: Escherichia coli; experiment: as above; type: cell-based; conditions: 18 hours at 35° C.
Summary of the method: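 MIC = lowest antibiotic concentration preventing visible growth; inoculum 5×10^5 CFU/mL; drug range 64-0.06 μg/mL; Muller-Hinton II […]; NCCLS M7-A2 guidance.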

N=C1NCC(C(O)C2NC(=O)[C@H](C(O)C3CNC(=N)N3)NC(=O)C(Cc3ccc(O)cc3)NC(=O)[C@H](Cc3ccccc3)NC(=O)CNC(=O)[C@H](CO)NC2=O)N1 (stereo in doubt) [Example 280a, Cyclo[glycylphenylalanyltyrosyl-3-(2-iminoimidazolidin-4-yl)seryl-3-(2-iminoimidazolidin-4-yl)serylseryl]]
ED50 [1]: > 8 mg/kg | Anatomical Pathology (Day 10), Heart [2]: 0 | Anatomical Pathology (Day 10), Kidney [2]: ++ | MIC ([3]; Table 2 section r2574-r2600, column 1, 18 hours at 35° C., read-out: MIC, strain of column 1): > 128 µg/mL | MIC ([3]; Table 2 section r2574-r2600, column 2, 18 hours at 35° C., read-out: MIC, strain of column 2): 128 µg/mL (≈ 161 µM) | MIC ([3]; Table 2 section r2574-r2600, column 3, 18 hours at 35° C., read-out: MIC, strain not given): > 128 µg/mL | MIC ([3]; Table 2 section r2574-r2600, column 5, 18 hours at 35° C., read-out: MIC, strain of column 5): > 128 µg/mL | MIC ([3]; Table 2 section r2574-r2600, column 7, 18 hours at 35° C., read-out: MIC, strain not given): > 128 µg/mL | MIC ([3]; Table 2 section r2574-r2600, column 9, 18 hours at 35° C., read-out: MIC, strain of column 9): > 128 µg/mL | MIC ([3]; Table 2 section r2574-r2600, column 10, 18 hours at 35° C., read-out: MIC, strain of column 10): > 128 µg/mL | MIC ([4]; strain ATCC 6301, read-out: MIC Streptococcus pneumoniae (ATCC 6301)): > 128 µg/mL | MIC ([4]; strain GC 1894, read-out: MIC Streptococcus pneumoniae (GC 1894)): 128 µg/mL (≈ 161 µM) | MIC ([4]; strain GC 4563, read-out: MIC Streptococcus pyogenes (GC 4563)): > 128 µg/mL | MIC ([4]; strain GC 4564, read-out: MIC Streptococcus agalactiae (GC 4564)): > 128 µg/mL | MIC ([4]; strain GC 4565, read-out: MIC Streptococcus pneumoniae (GC 4565)): > 128 µg/mL | MIC ([5]; Staphylococcus, read-out: MIC Coagulase Negative Staphylococcus (GC 4547)): 128 µg/mL (≈ 161 µM) | MIC ([5]; Staphylococcus, read-out: MIC Coagulase Negative Staphylococcus (GC 4548)): > 128 µg/mL | MIC ([5]; Staphylococcus, read-out: MIC Coagulase Negative Staphylococcus (GC 4549)): 128 µg/mL (≈ 161 µM) | MIC ([5]; Staphylococcus, read-out: MIC Coagulase Negative Staphylococcus (GC 4551)): > 128 µg/mL | MIC ([5]; Staphylococcus, read-out: MIC Coagulase Negative Staphylococcus (GC 6257)): 128 µg/mL (≈ 161 µM) | MIC ([5]; Staphylococcus, read-out: MIC Staphylococcus aureus-SMITH (GC 4543)): > 128 µg/mL | MIC ([5]; read-out: MIC Staphylococcus aureus (ATCC 29213)): > 128 µg/mL | MIC ([5]; read-out: MIC Staphylococcus aureus (GC 1131)): > 128 µg/mL | MIC ([5]; read-out: MIC Staphylococcus aureus (GC 3051)): > 128 µg/mL | MIC ([5]; read-out: MIC Staphylococcus aureus (GC 3053)): > 128 µg/mL | MIC ([5]; read-out: MIC Staphylococcus aureus (GC 4541)): > 128 µg/mL | MIC ([5]; read-out: MIC Staphylococcus aureus (GC 4542)): > 128 µg/mL | MIC ([5]; read-out: MIC Staphylococcus aureus (GC 4544)): > 128 µg/mL | MIC ([5]; read-out: MIC Staphylococcus aureus (GC 4545)): > 128 µg/mL | MIC ([5]; read-out: MIC Staphylococcus haemolyticus (GC 4546)): 128 µg/mL (≈ 161 µM) | MIC Staphylococcus aureus (ATCC 29213) ([5]; strain ATCC 29213): >128 µg/mL | MIC Staphylococcus aureus (GC 1131) ([5]; strain GC 1131): >128 µg/mL | MIC Staphylococcus aureus (GC 3051) ([5]; strain GC 3051): >128 µg/mL | MIC Staphylococcus aureus (GC 3053) ([5]; strain GC 3053): >128 µg/mL | MIC Staphylococcus aureus (GC 4541) ([5]; strain GC 4541): >128 µg/mL | MIC Staphylococcus aureus (GC 4542) ([5]; strain GC 4542): >128 µg/mL | MIC Staphylococcus aureus (GC 4544) ([5]; strain GC 4544): >128 µg/mL | MIC Staphylococcus aureus (GC 4545) ([5]; strain GC 4545): >128 µg/mL | MIC Staphylococcus haemolyticus (GC 4546) ([5]; strain GC 4546): 128 µg/mL (≈ 161 µM) | MIC Coagulase Negative Staphylococcus (GC 4547) ([5]; strain GC 4547): 128 µg/mL (≈ 161 µM) | MIC Coagulase Negative Staphylococcus (GC 4548) ([5]; strain GC 4548): >128 µg/mL | MIC Coagulase Negative Staphylococcus (GC 4549) ([5]; strain GC 4549): 128 µg/mL (≈ 161 µM) | MIC Coagulase Negative Staphylococcus (GC 4551) ([5]; strain GC 4551): >128 µg/mL | MIC Coagulase Negative Staphylococcus (GC 6257) ([5]; strain GC 6257): 128 µg/mL (≈ 161 µM) | MIC Staphylococcus aureus-SMITH (GC 4543) ([5]; strain SMITH GC 4543): >128 µg/mL | MIC ([6]; Enterococcus avium (GC 4558), read-out: MIC, Enterococcus avium (GC 4558)): > 128 µg/mL | MIC ([6]; Enterococcus faecalis (ATCC 29212), read-out: MIC, Enterococcus faecalis (ATCC 29212)): > 128 µg/mL | MIC ([6]; Enterococcus faecalis (GC 4553), read-out: MIC, Enterococcus faecalis (GC 4553)): > 128 µg/mL | MIC ([6]; Enterococcus faecalis (GC 4554), read-out: MIC, Enterococcus faecalis (GC 4554)): > 128 µg/mL | MIC ([6]; Enterococcus faecalis (GC 6189), read-out: MIC, Enterococcus faecalis (GC 6189)): > 128 µg/mL | MIC ([6]; Enterococcus faecium (GC 2243), read-out: MIC, Enterococcus faecium (GC 2243)): > 128 µg/mL | MIC ([6]; Enterococcus faecium (GC 4556), read-out: MIC, Enterococcus faecium (GC 4556)): > 128 µg/mL | MIC ([6]; Enterococcus faecium (GC 4557), read-out: MIC, Enterococcus faecium (GC 4557)): > 128 µg/mL | MIC ([6]; strain ATCC 29212, read-out: MIC Enterococcus faecalis (ATCC 29212)): > 128 µg/mL | MIC ([6]; strain GC 2242, read-out: MIC Enterococcus faecalis (GC 2242)): > 128 µg/mL | MIC ([6]; strain GC 2243, read-out: MIC Enterococcus faecium (GC 2243)): > 128 µg/mL | MIC ([6]; strain GC 2691, read-out: MIC Enterococcus faecalis (GC 2691)): > 128 µg/mL | MIC ([6]; strain GC 3059, read-out: MIC Enterococcus faecalis (GC 3059)): > 128 µg/mL | MIC ([6]; strain GC 4552, read-out: MIC Enterococcus faecalis (GC 4552)): > 128 µg/mL | MIC ([6]; strain GC 4553, read-out: MIC Enterococcus faecalis (GC 4553)): > 128 µg/mL | MIC ([6]; strain GC 4554, read-out: MIC Enterococcus faecalis (GC 4554)): > 128 µg/mL | MIC ([6]; strain GC 4556, read-out: MIC Enterococcus faecium (GC 4556)): > 128 µg/mL | MIC ([6]; strain GC 4557, read-out: MIC Enterococcus faecium (GC 4557)): > 128 µg/mL | MIC ([6]; strain GC 4558, read-out: MIC Enterococcus avium (GC 4558)): > 128 µg/mL | MIC ([6]; strain GC 6189, read-out: MIC Enterococcus faecalis (GC 6189)): > 128 µg/mL | MIC ([7]; ATCC25922, Escherichia coli (ATCC 25922), read-out: MIC, Escherichia coli (ATCC 25922)): 128 µg/mL (≈ 161 µM) | MIC ([7]; Escherichia coli (GC 4559), read-out: MIC, Escherichia coli (GC 4559)): 64 µg/mL (≈ 80.5 µM) | MIC ([7]; Escherichia coli (GC 4560), read-out: MIC, Escherichia coli (GC 4560)): 64 µg/mL (≈ 80.5 µM)
